# Measured values from ChEMBL document CHEMBL1127983, “The synthesis and evaluation of peptidyl aspartyl aldehydes as inhibitors of ice” (Bioorg Med Chem Lett, 1994).
# Square brackets hold non-standard residues; d marks the D form. Peptide text beside a SMILES is read from it. βAla = NCCC(=O)O
# Biological target: T1, Caspase-1 (Homo sapiens, UniProt P29466)
# T1 sequence (P29466 whole entry): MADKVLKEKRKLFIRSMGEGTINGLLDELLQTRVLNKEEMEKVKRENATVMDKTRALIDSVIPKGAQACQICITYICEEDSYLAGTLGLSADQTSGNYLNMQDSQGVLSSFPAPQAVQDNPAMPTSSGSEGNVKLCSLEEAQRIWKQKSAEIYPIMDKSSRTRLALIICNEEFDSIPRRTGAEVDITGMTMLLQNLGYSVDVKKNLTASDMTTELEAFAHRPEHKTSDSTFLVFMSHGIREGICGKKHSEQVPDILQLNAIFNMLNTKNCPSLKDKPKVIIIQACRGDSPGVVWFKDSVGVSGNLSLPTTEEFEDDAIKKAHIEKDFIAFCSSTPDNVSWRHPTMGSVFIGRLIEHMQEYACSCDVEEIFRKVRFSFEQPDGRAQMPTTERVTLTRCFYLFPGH
# Assay: Binding affinity towards IL-1 beta converting enzyme (ICE)
row,Ki [nM],SMILES
1,7.5,CC(=O)N[C@@H](Cc1cc(I)c(O)c(I)c1)C(=O)N[C@H](C(=O)N[C@@H](C)C(=O)N[C@H](C=O)CC(=O)O)C(C)C
2,50000,CC(=O)N[C@@H](Cc1ccc(O)cc1)C(=O)N(C)[C@H](C(=O)N[C@@H](C)C(=O)N[C@H](C=O)CC(=O)O)C(C)C
3,42,CC(=O)N[C@@H](Cc1ccccc1)C(=O)N[C@H](C(=O)N[C@@H](C)C(=O)N[C@H](C=O)CC(=O)O)C(C)C (Ac-FVAD-aldehyde)
4,2400,CC(=O)N[C@@H](Cc1ccc(O)cc1)C(=O)N[C@H](C(=O)N[C@H](C=O)CC(=O)O)C(C)C (Ac-Tyr-Val-Asp-aldehyde)
5,> 20000,CC(=O)N[C@@H](Cc1ccc(O)cc1)C(=O)N[C@H](C(=O)N[C@@H](C)C(=O)NCCC(=O)O)C(C)C (Ac-YVA[βAla]-OH)

# More lines, now with the values behind:
row,SMILES,Ki [nM]
1,CC(=O)N[C@@H](Cc1ccc(O)cc1)C(=O)N[C@H](C(=O)N[C@@H](C)C(=O)N[C@H](C=O)CC(=O)O)C(C)C,6
2,CC(C)[C@H](NC(=O)CC(Cl)Cl)C(=O)N[C@@H](C)C(=O)N[C@H](C=O)CC(=O)O,28
3,CC(=O)N[C@@H](Cc1ccc(O)cc1)C(=O)N[C@H](C(=O)N[C@@H](C)C(=O)N(C)[C@H](C=O)CC(=O)O)C(C)C,> 20000
4,CC(=O)N(C)[C@@H](Cc1ccc(O)cc1)C(=O)N[C@H](C(=O)N[C@@H](C)C(=O)N[C@H](C=O)CC(=O)O)C(C)C,120
5,CC(=O)N[C@@H](Cc1ccc(O)cc1)C(=O)N[C@H](C(=O)N(C)[C@@H](C)C(=O)N[C@H](C=O)CC(=O)O)C(C)C,59
6,CC(=O)N[C@@H](Cc1ccc(O)cc1)C(=O)N[C@H](C(=O)N[C@@H](C)C(=O)N[C@@H]1COC(=O)C1)C(C)C,> 20000
7,CC(=O)N[C@@H](Cc1ccc(O)cc1)C(=O)N[C@H](C(=O)N[C@@H](C)C(=O)N[C@H](/C=N\NC(N)=O)CC(=O)O)C(C)C,500
8,CC(=O)N[C@@H](Cc1ccc(O)cc1)C(=O)N[C@H](C(=O)N[C@@H](C)C(=O)N[C@@H]1CNC(=O)C1)C(C)C,> 20000
9,CC(=O)N[C@@H](C)C(=O)N[C@H](C=O)CC(=O)O (Ac-Ala-Asp-aldehyde),> 20000
10,CC(=O)N[C@@H](Cc1ccc(O)cc1)C(=O)N[C@@H](C)C(=O)N[C@H](C=O)CC(=O)O (Ac-Tyr-Ala-Asp-aldehyde),2100
11,CC(=O)N[C@@H](Cc1ccc(O)cc1)C(=O)N[C@H](C=O)CC(=O)O (Ac-Tyr-Asp-aldehyde),> 20000
12,CC(=O)N[C@H](C(=O)N[C@@H](C)C(=O)N[C@H](C=O)CC(=O)O)C(C)C (Ac-Val-Ala-Asp-aldehyde),1700
